Experimental data from patent publication US20220289685A1, “ANTIMALARIAL HEXAHYDROPYRIMIDINE ANALOGUES” (UCB BIOPHARMA SRL, priority 2019, published 2022).
Where a name gives a salt, the structure may show the parent alone.

tested on: Plasmodium falciparum 3D7 strain; experiment: P. falciparum 3D7 asexual blood stage assay (SYBR green readout); format: cell-based; settings: Plasmodium falciparum, 3D7, Erythrocyte, 72 h
Outline: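 P. falciparum 3D7 in A+ erythrocytes (5% haematocrit, 0.5% parasitaemia) exposed 72 h at 37 °C under 1% O2/3% CO2 to 20-point 1.5-fold titrations, 50,000–15 nM in 0.5% DMSO. SYBR green lysis overnight, fluorescence 485/528 nm; normalized to mefloquine and DMSO, EC50 from biphasic two-site fit.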

**Q.** Which IC50 does the source give for `C[C@@H]1C[C@H](N2C(=N)N[C@](C)(c3cccc(NC(=O)c4cncn4C)c3Cl)CC2=O)CCO1` (relative stereo) [Example 103, N-(2-Chloro-3-{(4S)-2-imino-4-methyl-1-[(2R*,4R*)-2-methyl-tetrahydropyran-4-yl]-6-oxo-hexahydropyrimidin-4-yl}phenyl)-3-methylimidazole-4-carboxamide hydrochloride] here?
**A.** The IC50 was 17 nM.

**Q.** `C[C@@H]1C[C@H](N2C(=N)N[C@](C)(c3cccc(NC(=O)c4cncc(C5CC5)c4)c3Cl)CC2=O)CCO1` (relative stereo) [Example 104, N-(2-Chloro-3-{(4S)-2-imino-4-methyl-1-[(2R*,4R*)-2-methyl-tetrahydropyran-4-yl]-6-oxo-hexahydropyrimidin-4-yl}phenyl)-5-cyclopropylpyridine-3-carboxamide hydrochloride] was tested. Which IC50 did it give?
**A.** The IC50 was 19 nM.

**Q.** How did the IC50 turn out when `C[C@@H]1C[C@H](N2C(=N)N[C@](C)(c3cccc(NC(=O)c4cccc(-n5ccnc5)c4)c3Cl)CC2=O)CCO1` (relative stereo) [Example 105, N-(2-Chloro-3-{(4S)-2-imino-4-methyl-1-[(2R*,4R*)-2-methyl-tetrahydropyran-4-yl]-6-oxo-hexahydropyrimidin-4-yl]phenyl)-3-(imidazol-1-yl)benzamide hydrochloride] was run?
**A.** Its IC50 is 44 nM.

**Q.** How did the IC50 turn out when `COc1ccc(C#N)cc1C(=O)Nc1cccc([C@]2(C)CC(=O)N([C@@H]3CCO[C@H](C)C3)C(=N)N2)c1Cl` (relative stereo) [Example 106, N-(2-Chloro-3-{(4S)-2-imino-4-methyl-1-[(2R*,4R*)-2-methyl-tetrahydropyran-4-yl]-6-oxo-hexahydropyrimidin-4-yl}phenyl)-5-cyano-2-methoxybenzamide hydrochloride] was run?
**A.** Its IC50 is 38 nM.

**Q.** For `COc1c(C#N)cccc1C(=O)Nc1cccc([C@]2(C)CC(=O)N([C@@H]3CCO[C@H](C)C3)C(=N)N2)c1Cl` (relative stereo) [Example 107, N-(2-Chloro-3-{(4S)-2-imino-4-methyl-1-[(2R*,4R*)-2-methyl-tetrahydropyran-4-yl]-6-oxo-hexahydropyrimidin-4-yl}phenyl)-3-cyano-2-methoxybenzamide hydrochloride], which IC50 is on record?
**A.** The IC50 was 27 nM.

**Q.** For `CC#Cc1cncc(C(=O)Nc2cccc([C@]3(C)CC(=O)N([C@@H]4CCO[C@H](C)C4)C(=N)N3)c2Cl)c1` (relative stereo) [Example 108, N-(2-Chloro-3-{(4S)-2-imino-4-methyl-1-[(2R*,4R*)-2-methyl-tetrahydropyran-4-yl]-6-oxo-hexahydropyrimidin-4-yl}phenyl)-5-(prop-1-ynyl)pyridine-3-carboxamide hydrochloride], which IC50 is on record?
**A.** Its IC50 is 40 nM.

**Q.** How did the IC50 turn out when `CC#Cc1cccc(C(=O)Nc2cccc([C@]3(C)CC(=O)N([C@@H]4CCO[C@H](C)C4)C(=N)N3)c2Cl)c1` (relative stereo) [Example 109, N-(2-Chloro-3-{(4S)-2-imino-4-methyl-1-[(2R*,4R*)-2-methyl-tetrahydropyran-4-yl]-6-oxo-hexahydropyrimidin-4-yl}phenyl)-3-(prop-1-ynyl)benzamide hydrochloride] was run?
**A.** Its IC50 is 23 nM.

**Q.** Which IC50 does the source give for `Cc1cn(-c2cccc(C(=O)Nc3cccc([C@]4(C)CC(=O)N([C@@H]5CCO[C@H](C)C5)C(=N)N4)c3Cl)c2)cn1` (relative stereo) [Example 110, N-(2-Chloro-3-{(4S)-2-imino-4-methyl-1-[(2R*,4R*)-2-methyl-tetrahydropyran-4-yl]-6-oxo-hexahydropyrimidin-4-yl}phenyl)-3-(4-methylimidazol-1-yl)-benzamide hydrochloride] here?
**A.** The IC50 was 288 nM.

**Q.** For `Cc1nccc(C(F)(F)F)c1C(=O)Nc1cccc([C@]2(C)CC(=O)N([C@@H]3CCO[C@H](C)C3)C(=N)N2)c1Cl` (relative stereo) [Example 111, N-(2-Chloro-3-{(4S)-2-imino-4-methyl-1-[(2R*,4R*)-2-methyl-tetrahydropyran-4-yl]-6-oxo-hexahydropyrimidin-4-yl}phenyl)-2-methyl-4-(trifluoromethyl)-pyridine-3-carboxamide hydrochloride], which IC50 is on record?
**A.** The IC50 was 418 nM.

**Q.** `C[C@@H]1C[C@H](N2C(=N)N[C@](C)(c3cccc(NC(=O)c4cc(C#N)cn4C)c3Cl)CC2=O)CCO1` (relative stereo) [Example 113, N-(2-Chloro-3-{(4S)-2-imino-4-methyl-1-[(2R*,4R*)-2-methyl-tetrahydropyran-4-yl]-6-oxo-hexahydropyrimidin-4-yl}phenyl)-4-cyano-1-methylpyrrole-2-carboxamide trifluoroacetic acid salt] was tested. Which IC50 did it give?
**A.** Its IC50 is 5 nM.

**Q.** How did the IC50 turn out when `COc1nccc(C(F)(F)F)c1C(=O)Nc1cccc([C@]2(C)CC(=O)N([C@@H]3CCO[C@H](C)C3)C(=N)N2)c1Cl` (relative stereo) [Example 114, N-(2-Chloro-3-{(4S)-2-imino-4-methyl-1-[(2R*,4R*)-2-methyl-tetrahydropyran-4-yl]-6-oxo-hexahydropyrimidin-4-yl]phenyl)-2-methoxy-4-(trifluoromethyl)-pyridine-3-carboxamide hydrochloride] was run?
**A.** The IC50 was 53 nM.

**Q.** `C[C@@H]1C[C@H](N2C(=N)N[C@](C)(c3cccc(NC(=O)c4ccc(C#N)o4)c3Cl)CC2=O)CCO1` (relative stereo) [Example 115, N-(2-Chloro-3-{(4S)-2-imino-4-methyl-1-[(2R*,4R*)-2-methyl-tetrahydropyran-4-yl]-6-oxo-hexahydropyrimidin-4-yl]phenyl)-5-cyanofuran-2-carboxamide trifluoroacetic acid salt] was tested. Which IC50 did it give?
**A.** The IC50 was 18 nM.

**Q.** How did the IC50 turn out when `C[C@@H]1C[C@H](N2C(=N)N[C@](C)(c3cccc(NC(=O)c4ccc(F)c(C#N)c4)c3Cl)CC2=O)CCO1` (relative stereo) [Example 116, N-(2-Chloro-3-{(4S)-2-imino-4-methyl-1-[(2R* ,4R* )-2-methyl-tetrahydropyran-4-yl]-6-oxo-hexahydropyrimidin-4-yl]phenyl)-3-cyano-4-fluorobenzamide trifluoroacetic acid salt] was run?
**A.** Its IC50 is 89 nM.

**Q.** How did the IC50 turn out when `C[C@@H]1C[C@H](N2C(=N)N[C@](C)(c3cccc(NC(=O)c4ccc(Cl)c(C#N)c4)c3Cl)CC2=O)CCO1` (relative stereo) [Example 117, 4-Chloro-N-(2-chloro-3-{(4S)-2-imino-4-methyl-1-[(2R*,4R*)-2-methyltetrahydropyran-4-yl]-6-oxo-hexahydropyrimidin-4-yl}phenyl)-3-cyanobenzamide trifluoroacetic acid salt] was run?
**A.** Its IC50 is 17 nM.

**Q.** How did the IC50 turn out when `C[C@@]1(c2cccc(NC(=O)c3ccccc3)c2Cl)CC(=O)N(C2CCOCC2)C(=N)N1` [Example 1, N-{2-Chloro-3-[(4S)-2-imino-4-methyl-6-oxo-1-(tetrahydropyran-4-yl)hexahydropyrimidin-4-yl]-phenyl]benzamide trifluoroacetic acid salt] was run?
**A.** Its IC50 is 227 nM.

**Q.** How did the IC50 turn out when `C[C@@]1(c2cccc(NC(=O)c3ccc(Cl)cn3)c2Cl)CC(=O)N(C2CCOCC2)C(=N)N1` [Example 2, 5-Chloro-N-{2-chloro-3-[(4S)-2-imino-4-methyl-6-oxo-1-(tetrahydropyran-4-yl)hexahydro-pyrimidin-4-yl]phenyl}pyridine-2-carboxamide trifluoroacetic acid salt] was run?
**A.** Its IC50 is 1120 nM.

**Q.** For `C[C@@]1(c2cccc(NC(=O)c3cccc(C#N)c3)c2Cl)CC(=O)N(C2CCC(F)(F)CC2)C(=N)N1` [Example 23, N-{2-Chloro-3-[(4S)-1-(4,4-difluorocyclohexyl)-2-imino-4-methyl-6-oxohexahydropyrimidin-4-yl]phenyl}-3-cyanobenzamide hydrochloride], which IC50 is on record?
**A.** Its IC50 is 68 nM.

same assay, conditions: Plasmodium falciparum, Erythrocyte; P. falciparum 3D7 in human erythrocytes, 72 h incubation, SYBR green fluorescence; read-out: IC50

**Q.** `C[C@@H]1C[C@H](N2C(=N)N[C@](C)(c3cccc(NC(=O)c4ccc[n+]([O-])c4)c3Cl)CC2=O)CCO1` (relative stereo) [Example 112, N-(2-Chloro-3-{(4S)-2-imino-4-methyl-1-[(2R*,4R*)-2-methyl-tetrahydropyran-4-yl]-6-oxo-hexahydropyrimidin-4-yl]phenyl)-1-oxidopyridin-1-ium-3-carboxamide hydrochloride] was tested. Which IC50 did it give?
**A.** Its IC50 is 707 nM.
